Measurements as given in patent US10696651B2, “Heterocyclic compound” (Takeda Pharmaceutical Company Limited, priority 2016, dated 2020).
Where a name gives a salt, the structure may show the parent alone. Read-outs that look alike come from different tables or passages of the source.

What was measured:
[1] = target: T1, human GCN2 full-length protein (Homo sapiens, UniProt Q9P2K8); experiment: GCN2 enzyme inhibition assay (LanthaScreen TR-FRET); type: biochemical; conditions: GCN2 enzyme inhibitory activity at compound concentration of 3 μM; for inhibition at 3 µM: read-out: inhibitory rate
T1 construct: purchased Carna Biosciences, Inc
T1 sequence (Q9P2K8 whole entry): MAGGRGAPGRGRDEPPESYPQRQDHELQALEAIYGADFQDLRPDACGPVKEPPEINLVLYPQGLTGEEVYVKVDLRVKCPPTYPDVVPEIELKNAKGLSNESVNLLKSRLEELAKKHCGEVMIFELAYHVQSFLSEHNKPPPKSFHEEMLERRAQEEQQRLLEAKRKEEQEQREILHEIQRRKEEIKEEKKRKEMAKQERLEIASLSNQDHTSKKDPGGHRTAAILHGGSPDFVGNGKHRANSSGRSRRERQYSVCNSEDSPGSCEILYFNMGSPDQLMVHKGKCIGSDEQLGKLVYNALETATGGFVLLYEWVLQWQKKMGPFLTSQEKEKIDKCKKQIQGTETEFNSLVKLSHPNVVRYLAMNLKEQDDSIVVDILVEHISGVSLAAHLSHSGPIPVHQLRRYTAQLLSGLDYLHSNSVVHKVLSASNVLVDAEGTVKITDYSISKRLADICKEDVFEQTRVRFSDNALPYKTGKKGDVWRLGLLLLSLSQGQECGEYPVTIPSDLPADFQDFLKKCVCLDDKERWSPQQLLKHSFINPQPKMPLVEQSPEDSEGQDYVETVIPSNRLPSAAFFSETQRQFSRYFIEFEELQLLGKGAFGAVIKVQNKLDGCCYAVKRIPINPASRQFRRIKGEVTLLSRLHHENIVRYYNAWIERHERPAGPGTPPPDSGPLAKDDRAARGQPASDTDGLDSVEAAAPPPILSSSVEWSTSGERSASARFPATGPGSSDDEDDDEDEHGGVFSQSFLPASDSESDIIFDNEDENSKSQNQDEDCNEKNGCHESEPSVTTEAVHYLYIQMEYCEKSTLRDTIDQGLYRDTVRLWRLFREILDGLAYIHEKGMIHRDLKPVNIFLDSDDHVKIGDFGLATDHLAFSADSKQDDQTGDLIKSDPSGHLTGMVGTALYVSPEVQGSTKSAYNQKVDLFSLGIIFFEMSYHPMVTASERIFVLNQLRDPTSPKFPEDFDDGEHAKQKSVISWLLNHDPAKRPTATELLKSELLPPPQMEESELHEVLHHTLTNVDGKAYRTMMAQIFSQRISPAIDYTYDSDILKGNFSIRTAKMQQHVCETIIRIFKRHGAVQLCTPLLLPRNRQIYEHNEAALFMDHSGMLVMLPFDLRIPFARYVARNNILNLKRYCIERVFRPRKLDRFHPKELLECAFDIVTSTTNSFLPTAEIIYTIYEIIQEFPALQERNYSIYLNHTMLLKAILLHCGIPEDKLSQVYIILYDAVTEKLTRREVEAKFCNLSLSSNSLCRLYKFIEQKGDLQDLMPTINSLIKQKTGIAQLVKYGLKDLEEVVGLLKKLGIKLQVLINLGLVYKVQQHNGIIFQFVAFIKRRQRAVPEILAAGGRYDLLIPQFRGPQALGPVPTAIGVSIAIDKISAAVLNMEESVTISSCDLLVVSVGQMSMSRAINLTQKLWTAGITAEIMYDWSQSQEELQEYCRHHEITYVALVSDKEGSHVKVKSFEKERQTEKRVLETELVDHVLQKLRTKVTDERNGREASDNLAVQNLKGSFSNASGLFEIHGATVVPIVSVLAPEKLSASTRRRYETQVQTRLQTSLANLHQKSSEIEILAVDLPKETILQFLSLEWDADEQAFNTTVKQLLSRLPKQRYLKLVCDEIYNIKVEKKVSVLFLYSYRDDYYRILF
Method: GCN2 enzyme was preserved at -70° C. and used. The GCN2 enzyme inhibitory activity of the test compound was measured by the LanthaScreenTR-FRET (Time Resolved Fluorescence Resonance Energy Transfer) method (manufactured by ThermoFisher). […] Then, GCN2 enzyme solution diluted with the assay buffer was added by 2 μL to each well. The enzyme solution was not added to a part of the wells to give a control group. After incubation at room temperature for 1 hr, 570 μM ATP solution containing 390 nM […] physiological protein substrate (ThermoFisher) was added by 2 μL. After reaction at room temperature for 1 hr, TR-FRET Dilution Buffer (ThermoFisher) containing 4 nM Terbium-labeled anti-elF2alpha [[…]] antibody (ThermoFisher) dissolved therein was added by 2 μL to each well. After standing at room temperature for 1 hr, time decomposition fluorescence measurement was performed on platereader Envision (manufactured by PerkinElmer).

[2] = system: osteosarcoma cell line U-2-OS; experiment: In vitro cell proliferation inhibition assay (CellTiter-Glo, low amino acid media); type: cell-based; conditions: McCoy's 5A low amino acid media; for inhibition at 0.1 µM: Homo sapiens, U2OS, 72 h, cell proliferation inhibitory rate
Method: A cell suspension (40 μL) (1000 cells/well) of osteosarcoma cell line U-2-OS obtained from ATCC (American Type Culture Collection) was seeded on a 384 plate using McCoy's 5A low amino acid media (amino acid content 25%). The seeded cells were incubated (37° C., 5% CO2) overnight to 24 hr at the longest. Each example compound was dissolved (10 mM) in DMSO, delivered to wells by using TECAN HP D300 (TECAN), and the plate was incubated for 72 hr (37° C., 5% CO2). A well without addition of compound was treated similarly as a control group. Celltiter-Glo (registered trade mark) Luminescent Cell Viability Assay reagent (Promega KK) equilibrated at room temperature was added (40 μL/well) to cells in each well before compound treatment (untreated group) and 72 hours after compound treatment. After incubation for 10 min, cell proliferation inhibitory rate was measured by the amount of ATP which is a cell viability marker. Luminescence of cells showing ATP amount was measured using ARVO MX (PerkinElmer). Based on the luminescence values of the untreatment group, the control group without addition of Example compound solution, and the treatment group with addition of Example compound, the cell proliferation inhibitory rate (%) of the test compound at a compound concentration of 100 nM was calculated by the following formula and the results thereof are shown in Tables 4-1, 4-2. Inhibitory rate (%)=(1−(luminescence value of treatment group−luminescence value of untreatment group)÷(luminescence value of control group−luminescence value of untreatment group))×100

SMILES	inhibition at 3 µM ([1]; Table 3-2) [%]	inhibition at 0.1 µM ([2]; Table 4-2) [%]	also measured
COc1c(CO)cc(Cl)cc1S(=O)(=O)Nc1ccc(F)c(C#Cc2cnc(N)nc2)c1F [Example 129, N-(3-((2-aminopyrimidin-5-yl)ethynyl)-2,4-difluorophenyl)-5-chloro-3-(hydroxymethyl)-2-methoxybenzenesulfonamide]	99	70	
C[C@H](CO)Nc1ncc(C#Cc2c(F)ccc(NS(=O)(=O)c3cc(Cl)cc(CO)c3Cl)c2F)nn1 [Example 178, 2,5-dichloro-N-(2,4-difluoro-3-((3-(((2R)-1-hydroxypropan-2-yl)amino)-1,2,4-triazin-6-yl)ethynyl)phenyl)-3-(hydroxymethyl)benzenesulfonamide]	100	74	
Cc1ncc(Cl)cc1S(=O)(=O)Nc1ccc(F)c(C#Cc2cnc3[nH]ncc3c2)c1F [Example 2, 5-chloro-N-(2,4-difluoro-3-(1H-pyrazolo[3,4-b]pyridin-5-ylethynyl)phenyl)-2-methylpyridine-3-sulfonamide]			inhibition at 3 µM ([1]; Table 3-1): 100%; inhibition at 0.1 µM ([2]; Table 4-1): 92%
O=S(=O)(Nc1ccc(F)c(C#Cc2cnc3[nH]ncc3c2)c1F)c1cc(Cl)cc(Cl)c1 [Example 25, 3,5-dichloro-N-(2,4-difluoro-3-(1H-pyrazolo[3,4-b]pyridin-5-ylethynyl)phenyl)benzenesulfonamide]			inhibition at 3 µM ([1]; Table 3-1): 99%; inhibition at 0.1 µM ([2]; Table 4-1): 44%
Cc1ncc(Cl)cc1S(=O)(=O)Nc1ccc(F)c(C#Cc2cnc(N)nn2)c1F [Example 158, N-(3-((3-amino-1,2,4-triazin-6-yl)ethynyl)-2,4-difluorophenyl)-5-chloro-2-methylpyridine-3-sulfonamide]	99	43	
COc1c(CO)cc(Cl)cc1S(=O)(=O)Nc1ccc(F)c(C#Cc2cnc(NC3CC3)nc2)c1F [Example 138, 5-chloro-N-(3-((2-(cyclopropylamino)pyrimidin-5-yl)ethynyl)-2,4-difluorophenyl)-3-(hydroxymethyl)-2-methoxybenzenesulfonamide]	99	87	
CNc1ncc(Cl)cc1S(=O)(=O)Nc1ccc(F)c(C#Cc2cnc(N[C@H]3CC[C@H](O)CC3)nc2)c1F [Example 182, 5-chloro-N-(2,4-difluoro-3-((2-((trans-4-hydroxycyclohexyl)amino)pyrimidin-5-yl)ethynyl)phenyl)-2-(methylamino)pyridine-3-sulfonamide]	102	71	
O=S(=O)(Nc1ccc(F)c(C#Cc2cnc3[nH]ncc3c2)c1F)c1cc(Br)ccc1F [Example 24, 5-bromo-N-(2,4-difluoro-3-(1H-pyrazolo[3,4-b]pyridin-5-ylethynyl)phenyl)-2-fluorobenzenesulfonamide TFA Salt]			inhibition at 3 µM ([1]; Table 3-1): 99%; inhibition at 0.1 µM ([2]; Table 4-1): 37%
C[C@H](CO)Nc1ncc(C#Cc2c(F)ccc(NS(=O)(=O)c3cc(Cl)cc4c3OCC4O)c2F)cn1 (stereo partly drawn) [Example 186, 5-chloro-N-(2,4-difluoro-3-((2-(((2R)-1-hydroxypropan-2-yl)amino)pyrimidin-5-yl)ethynyl)phenyl)-3-hydroxy-2,3-dihydro-1-benzofuran-7-sulfonamide]			inhibitory rate ([1]; Table 3-2, 3 µM): 100%; inhibitory rate ([2]; 72 hr, Table 4-2): 43%
O=S(=O)(Nc1ccc(F)c(C#Cc2cnc3[nH]ncc3c2)c1F)c1cc(Cl)cc2c1OCC2 [Example 8, 5-chloro-N-(2,4-difluoro-3-(1H-pyrazolo[3,4-b]pyridin-5-ylethynyl)phenyl)-2,3-dihydro-1-benzofuran-7-sulfonamide]			inhibition at 3 µM ([1]; Table 3-1): 100%; inhibition at 0.1 µM ([2]; Table 4-1): 78%
Cc1ncc(Cl)cc1S(=O)(=O)Nc1ccc(F)c(C#Cc2cnc(N[C@H](C)CO)nc2)c1F [Example 189, 5-chloro-N-(2,4-difluoro-3-((2-(((2R)-1-hydroxypropan-2-yl)amino)pyrimidin-5-yl)ethynyl)phenyl)-2-methylpyridine-3-sulfonamide]	99	79	
COc1ncc(Cl)cc1S(=O)(=O)Nc1ccc(F)c(C#Cc2cnc(N[C@H](C)CO)nc2)c1F [Example 175, 5-chloro-N-(2,4-difluoro-3-((2-(((2R)-1-hydroxypropan-2-yl)amino)pyrimidin-5-yl)ethynyl)phenyl)-2-methoxypyridine-3-sulfonamide]	99	75	
COc1c(CO)cc(Cl)cc1S(=O)(=O)Nc1ccc(F)c(C#Cc2cnc(NCCO)nc2)c1F [Example 149, 5-chloro-N-(2,4-difluoro-3-((2-((2-hydroxyethyl)amino)pyrimidin-5-yl)ethynyl)phenyl)-3-(hydroxymethyl)-2-methoxybenzenesulfonamide]	99	70	
Cc1ncc(Cl)cc1S(=O)(=O)Nc1ccc(F)c(C#Cc2cnc(N[C@@H](C)CO)nc2)c1F [Example 193, 5-chloro-N-(2,4-difluoro-3-((2-(((2S)-1-hydroxypropan-2-yl)amino)pyrimidin-5-yl)ethynyl)phenyl)-2-methylpyridine-3-sulfonamide]	98	64	
CNc1ncc(C#Cc2c(F)ccc(NS(=O)(=O)c3cc(Cl)ccc3Cl)c2F)cn1 [Example 37, 2,5-dichloro-N-(2,4-difluoro-3-((2-(methylamino)pyrimidin-5-yl)ethynyl)phenyl)benzenesulfonamide TFA Salt]			inhibition at 3 µM ([1]; Table 3-1): 98%; inhibition at 0.1 µM ([2]; Table 4-1): 45%
COc1c(CO)cc(Cl)cc1S(=O)(=O)Nc1ccc(F)c(C#Cc2cnc(N)nn2)c1F [Example 130, N-(3-((3-amino-1,2,4-triazin-6-yl)ethynyl)-2,4-difluorophenyl)-5-chloro-3-(hydroxymethyl)-2-methoxybenzenesulfonamide]	99	68	
O=S(=O)(Nc1ccc(F)c(C#Cc2cnc(N[C@H]3CC[C@H](O)CC3)nn2)c1F)c1cc(Cl)cc(CO)c1Cl [Example 177, 2,5-dichloro-N-(2,4-difluoro-3-((3-((trans-4-hydroxycyclohexyl)amino)-1,2,4-triazin-6-yl)ethynyl)phenyl)-3-(hydroxymethyl)benzenesulfonamide]	100	72	
COc1ncc(Cl)cc1S(=O)(=O)Nc1ccc(F)c(C#Cc2cnc(N[C@H]3CC[C@H](O)CC3)nc2)c1F [Example 174, 5-chloro-N-(2,4-difluoro-3-((2-((trans-4-hydroxycyclohexyl)amino)pyrimidin-5-yl)ethynyl)phenyl)-2-methoxypyridine-3-sulfonamide]	99	83	
O=S(=O)(Nc1ccc(F)c(C#Cc2cnc(N[C@H]3CC[C@H](O)CC3)nc2)c1F)c1cc(Cl)cc(CO)c1Cl [Example 176, 2,5-dichloro-N-(2,4-difluoro-3-((2-((trans-4-hydroxycyclohexyl)amino)pyrimidin-5-yl)ethynyl)phenyl)-3-(hydroxymethyl)benzenesulfonamide]	100	77	
Cc1ncc(Cl)cc1S(=O)(=O)Nc1ccc(F)c(C#Cc2cnc(N[C@H]3CC[C@H](O)CC3)nc2)c1F [Example 188, 5-chloro-N-(2,4-difluoro-3-((2-((trans-4-hydroxycyclohexyl)amino)pyrimidin-5-yl)ethynyl)phenyl)-2-methylpyridine-3-sulfonamide]	100	77	
COc1c(CO)cc(Cl)cc1S(=O)(=O)Nc1ccc(F)c(C#Cc2cnc(N[C@H](C)CO)nc2)c1F [Example 150, 5-chloro-N-(2,4-difluoro-3-((2-(((2R)-1-hydroxypropan-2-yl)amino)pyrimidin-5-yl)ethynyl)phenyl)-3-(hydroxymethyl)-2-methoxybenzenesulfonamide]	99	77	
COc1c(CO)cc(Cl)cc1S(=O)(=O)Nc1ccc(F)c(C#Cc2cnc(N[C@H]3CC[C@H](O)CC3)nc2)c1F [Example 153, 5-chloro-N-(2,4-difluoro-3-((2-((trans-4-hydroxycyclohexyl)amino)pyrimidin-5-yl)ethynyl)phenyl)-3-(hydroxymethyl)-2-methoxybenzenesulfonamide]	99	78	
